# From patent publication US20170280718A1, “HERBICIDAL AND FUNGICIDAL COMPOSITIONS AND THEIR USES” (The Regents of the University of California, priority 2014, published 2017)
# Entries after “also recorded” stand apart in the source; their conditions may differ. Like-named read-outs stand apart in the source and are kept apart here.
# Columns and labels:
# [1] = system: GFP-CESA3 and CFP-SYP61 compartments; test: Colocalization of GFP-CESA3 and CFP-SYP61 compartments, confocal microscopy; type: cell-based, Arabidopsis; conditions: versus DMSO; p=0.0013, t-test
# Description: (§1) Confocal images for CFP-SYP61-×CESA3-GFP were obtained using a Leica SP5 microscope using a 63× water objective employing dual channel sequential line scanning. Fluorescent markers were excited at 442 nm (CFP) and 488 nm (GFP). Additional confocal images were obtained using a Zeiss 710 equipped with a 63× oil and a 40× water objective. A 561 nm diode laser was used for propidium iodide (PI, Sigma) and RFP, a 488 nm for GFP, a 514 nm for YFP, and a 405 nm for CFP. Image analysis was performed using a combination of software tools: ImageJ software (version 1.36b; http://rsbweb.nih.gov/ij/), Image Pro Plus (Media Cybernetics, Rockville, Md.), and Imaris (Bitplane, Saint Paul, Minn.).
# CSCs are enriched in SYP61 associated compartments upon CESTRIN treatment. The apparent redistribution of CSCs in the cell cortex prompted us to further investigate the identity of CESTRIN bodies. Previous studies have shown that CSCs are partially colocalized with SYP61/VHA-a1 in early endosome/TGN compartments (Crowell et al., 2009; Gutierrez et al., 2009). The presence of CESAs in SYP61 vesicles has been established by proteomic analysis (Drakakaki et al., 2012). […] As previously shown, both SYP61 and SYP41/42 partially overlap with CESA6 under mock treatment, however only SYP61 remains partially colocalized after mannitol treatment (Gutierrez et al., 2009). […]
# [2] = system: ER, Golgi, TGN, early endosomes, vacuole, CLC2-GFP, Theseus-GFP, sec-GFP markers; test: Specificity: organelle markers and their subcellular localizations in etiolated hypocotyls; type: cell-based, Arabidopsis
# Text: (§2) Transgenic lines expressing MAN-YFP (Nebenfuhr et al., 1999), HDEL-GFP (Nelson et al., 2007), VAMP711-YFP (Geldner et al., 2009), NTPP-RFP (Rosado et al.), THE1-GFP (Hematy et al., 2007), CLC-GFP (Konopka et al., 2008), VHA-RFP (Dettmer et al., 2006), VTI12-YFP (Geldner et al., 2009), CFP-SYP61 (Robert et al., 2008), sec-GFP (Goh et al., 2007), CESA6-YFP (Paredez et al., 2006), TUB-GFP (Nakamura et al., 2004), EB1-GFP (Bisgrove et al., 2008) and TALIN-GFP ((Mathur et al., 1999) were used. In addition, the mutant ixr1-1 (Scheible et al., 2001) and prc1-1 (Desnos et al., 1996) were used.
# as §1, with “Minn.). […]” for “Minn.).”
# E. coli = test: Bacterial growth in LB media containing the chemical; type: cell-based; conditions: OD over 8 hours
# Description: Two mL of Luria-Bertani (LB) media (10 g tryptone, 5 g yeast extract, and 10 g NaCl, pH 7) were inoculated with a single colony of TOP 10 cells and incubated overnight at 37° C. Thirty μL of this culture was then used to inoculate 3 mL of LB media containing the chemical. The OD was measured every 30 minutes over 8 hours using a spectrometer.
# [3] = system: Schizosaccharomyces pombe; test: Yeast growth on solid YPD containing the chemical; type: cell-based; conditions: 5 days
# Description: Single colonies of Saccharomyces cerevisiae-Y2H Gold and Schizosaccharomyces pombe were grown in liquid yeast extract-peptone-dextrose (YPD) media (10 g yeast extract, 20 g peptone, and 20 g glucose per 1 L of media, pH 7), at 30° C. for 24 hours. Yeast cultures were transferred to 3 mL of YPD to grow until an OD of 0.7 was reached. Ten μL of liquid YPD containing yeast at an OD 0.7 were placed onto solid YPD (10 g yeast extract, 20 g peptone 20 g glucose and 11 g bacto-agar per 1 L of media, pH 7) in a 6 well plate containing the chemicals. Four serial dilutions (1:10) were spotted per well. Plates were incubated at 30° C. for 3 days for Saccharomyces cerevisiae-Y2H Gold and 5 days for Schizosaccharomyces pombe and imaged with a flatbed scanner.
# [4] = system: Arabidopsis etiolated hypocotyls; test: Hypocotyl growth measurements of etiolated seedlings; type: in vivo; conditions: for IC50: Arabidopsis thaliana; for hypocotyl growth response of prc1-1 mutant: CESA6 mutant prc1-1, 8 μM CESTRIN or 4 nM isoxaben, lower degree than WT Col-0
# Description: For growth analysis, seedlings were germinated on AGM containing the chemicals CESTRIN or isoxaben solubilized in DMSO and grown as described above. When the experiment was complete, the plates were scanned using a flatbed scanner (Epson Perfection V300) and hypocotyl lengths were measured using the segmented line tool in the image analysis software, ImageJ (Rasband et al., 1997-2014). Statistical analyses were carried out using the statistical package, R (R Core Team, 2012).
# [5] = system: cellulose content in Arabidopsis etiolated seedlings; test: Cellulose content of etiolated hypocotyls (modified Updegraff method, Anthrone assay); type: in vivo, Arabidopsis thaliana
# Description: Etiolated WT Col-0 Arabidopsis thaliana seedlings were grown on AGM containing CESTRIN as described above. Hypocotyls were harvested after 8 days of growth. Cell wall materials were isolated into alcohol insoluble residues (AIR) (Gunl et al., 2010) and cellulose content was estimated using a modified Updegraff method (Updegraff, 1969). Briefly, insoluble trifluoroacetic acid hydrolyzed AIR pellets were quantified using the Anthrone assay as described earlier Viles & Silverman (1949) and Dische (1962).
# tubulin = test: MT polymerization assay (in vitro, OD of polymerized tubulin); type: biochemical; conditions: 15 μM
# Text: The MT polymerization data was obtained using a polymerization assay kit (Cytoskeleton, Inc. Denver Colo.), employing OD measurements of polymerized tubulin as previously described (Shelanski et al., 1973; Lee and Timasheff, 1977).
# [6] = system: microtubules (TUB-GFP, RFP-TUA5), EB1-GFP, Talin-GFP, CESA6-YFP; test: Cytoskeleton and CESA marker localization in etiolated hypocotyls (microtubules, EB1, actin, CESA6); type: cell-based, Arabidopsis
# Text: as §2, §1
# Phytophtora capsici = test: Phytophthora growth in corn agar media; type: cell-based; conditions: 3 weeks in supplemented media
# Description: Phytophtora capsici inoculates were grown in corn agar media supplemented either with DMSO or different concentrations of CESTRIN. After 3 weeks cultures were imaged using flatbed scanner.
# [7] = system: GFP-CESA3 (cellulose synthase complexes, CSCs); conditions: 2-hour CESTRIN treatment (15 μM); control 218 nm/min
# GFP-KOR1 = conditions: CESTRIN treatment; control average 220 nm/min
smiles,measurement,setting,value
"Cc1cc(C(F)(F)F)cc(NNc2c([N+](=O)[O-])cc(C(F)(F)F)cc2[N+](=O)[O-])n1 [CESTRIN, 1-[2,6-dinitro-4-(trifluoromethyl)phenyl]-2-[6-methyl-4-(trifluoromethyl)pyridin-2-yl]hydrazine]",enhancement of colocalization of GFP-CESA3 and CFP-SYP61 compartments,[1],~15%
same,localization of PM-receptor-like kinase Theseus-GFP and secretion marker sec-GFP,[2],neither the localization of the PM-receptor-like kinase Theseus-GFP nor the secretion marker sec-GFP were altered
same,morphology of endosomes labeled by CLC2-GFP,[2],unaltered morphology
same,effect on proliferation of bacteria,E. coli,no effect on their proliferation was observed
same,growth of yeast,[3],inhibited
same,IC50,"[4]; read-out: estimated IC50, anisotropic cell growth",4.9 µM
same,IC50,"[4]; read-out: half maximal inhibitory concentration (IC50), growth inhibition of hypocotyls",4.85 µM
same,hypocotyl growth response of prc1-1 mutant,[4],showed sensitivity
same,reduction of hypocotyl growth of WT Col-0,"[4]; WT Col-0, 8 μM CESTRIN vs DMSO, P=0.001",80%
same,reduction of hypocotyl growth of ixr1-1,"[4]; isoxaben-resistant CESA3 mutant ixr1-1, 8 μM CESTRIN vs DMSO, n=16",62%
same,"Cellulose content, Hypocotyl","[5]; 9 μM, etiolated seedlings, 8 days, DMSO 103.7 ± 6.4",75.3 ± 2.7 μg/mg AIR
same,reduction in cellulose compared to control seedlings,[5]; hypocotyls grown on 9 μM CESTRIN,~30%
same,in-vitro polymerization of tubulin,tubulin,not affected; also recorded: does not inhibit in vitro tubulin polymerization
same,morphology or organization of actin (Talin-GFP),[6]; 15 μM,does not affect
same,localization of the end binding protein 1 (EB1-GFP),[6]; 15 μM (printed 15 JIM),induced cytoplasmic localization
same,MT organization and GFP-CESA3 particle distribution (RFP-TUA5 / GFP-CESA3 seedlings),[6]; two-hour treatment,causes loss of MT organization and redistribution of GFP-CESA3 particles
same,Phytophthora capsici growth,Phytophtora capsici,completely inhibited
same,average velocity of the GFP-CESA3 particles,[7],127 nm/min
same,mean velocity of GFP-KOR1 labelled particles,GFP-KOR1,~60 nm/min
same,localization of 3×Ypet-POM2,3×Ypet-POM2/CSI1; 2 hours of CESTRIN treatment,localized to the cytoplasm
same,motility of POM2 labelled particles,3×Ypet-POM2/CSI1; after 2 hours of treatment,came virtually to a rest
same,average motility of POM2 labelled particles,"3×Ypet-POM2/CSI1; after about 1.5 hours of treatment, n=106, control ~262 nm/min",0.273 ×10⁻⁶ cm/s
"CCC(C)(CC)c1cc(NC(=O)c2c(OC)cccc2OC)on1 [isoxaben, N-[3-(1-Ethyl-1-methylpropyl)-5-isoxazolyl]-2,6-dimethyoxybenzamide, reference compound]",hypocotyl growth response of prc1-1 mutant,[4],showed sensitivity
same,hypocotyl growth of ixr1-1,"[4]; ixr1-1, 4 nM isoxaben vs DMSO, p=0.2",not reduced
